In publication PMC9027910, “Synthesis and Antimycobacterial Evaluation of N-(4-(Benzyloxy)benzyl)-4-aminoquinolines” (Molecules, 2022):

Tests used:
[1] = tested on: M. tuberculosis H37Rv; assay: Minimum inhibitory concentration (resazurin microplate); type: cell-based, Mycobacterium tuberculosis; conditions: for MIC: Mycobacterium tuberculosis, M. tuberculosis H37Rv, 7 days + 48 h resazurin, highest value of three assays; for Activity against M. tuberculosis H37Rv in words: at the highest concentrations evaluated

Row | SMILES | MIC [1] | melting point | Fold higher MIC than 9n ([1]; MIC ratio versus methylated analogue 9n) | Fold reduction of activity versus 9n and 9o ([1]; MIC of unsubstituted benzyloxy compound versus 4-halogenated 9n, 9o) | Activity against M. tuberculosis H37Rv in words [1]
1 | COc1cc(COc2ccc(CNc3cc(C)nc4ccc(Br)cc34)cc2)cc(OC)c1 [Compound 9r, N-(4-((3,5-dimethoxybenzyl)oxy)benzyl)-6-bromo-2-methylquinolin-4-amine] | 5.1 µM | 151 to 153 °C |  |  | 
2 | Cc1cc(NCc2ccc(OCc3ccc(F)cc3)cc2)c2ccccc2n1 [Compound 9c, N-(4-((4-fluorobenzyl)oxy)benzyl)-2-methylquinolin-4-amine] | 26.8 µM | 134 to 136 °C |  |  | 
3 | COc1ccc2nc(C)cc(NCc3ccc(OCc4ccc(F)cc4)cc3)c2c1 [Compound 9x, N-(4-((4-fluorobenzyl)oxy)benzyl)-6-methoxy-2-methylquinolin-4-amine] | 12.4 µM | 141 to 143 °C |  |  | 
4 | CCc1cc(NCc2ccc(OCc3ccccc3)cc2)c2cc(OC)ccc2n1 [Compound 9aa, N-(4-(benzyloxy)benzyl)-2-ethyl-6-methoxyquinolin-4-amine] | 12.5 µM | 118 to 120 °C |  |  | 
5 | COc1ccc2nc(C)cc(NCc3ccc(OCc4ccccc4)cc3)c2c1 [Compound 9u, N-(4-(benzyloxy)benzyl)-6-methoxy-2-methylquinolin-4-amine] | 13 µM | 96 to 98 °C |  |  | 
6 | CCc1cc(NCc2ccc(OCc3ccccc3)cc2)c2cc(Br)ccc2n1 [Compound 9s, N-(4-(benzyloxy)benzyl)-6-bromo-2-ethylquinolin-4-amine] | 5.6 µM | 136 to 138 °C |  |  | 
7 | COc1ccc2nc(C)cc(NCc3ccc(OCc4ccc(Cl)cc4)cc3)c2c1 [Compound 9v, N-(4-((4-chlorobenzyl)oxy)benzyl)-6-methoxy-2-methylquinolin-4-amine] | 11.9 µM | 259 to 261 °C |  |  | 
8 | Cc1cc(NCc2ccc(OCc3ccc(Cl)cc3)cc2)c2cc(Cl)ccc2n1 [Compound 9h, N-(4-((4-chlorobenzyl)oxy)benzyl) 6-chloro-2-methylquinolin-4-amine] | 5.9 µM | 177 to 179 °C |  |  | 
9 | Cc1cc(NCc2ccc(OCc3ccc(C(C)C)cc3)cc2)c2cc(Cl)ccc2n1 [Compound 9k, N-(4-((4-isopropylbenzyl)oxy)benzyl)-6-chloro-2-methylquinolin-4-amine] | 5.8 µM | 126 to 128 °C |  |  | 
10 | Cc1cc(NCc2ccc(OCc3ccccc3)cc2)c2cc(Cl)ccc2n1 [Compound 9g, N-(4-(benzyloxy)benzyl)-6-chloro-2-methylquinolin-4-amine] | 6.4 µM | 165 to 167 °C |  |  | 
11 | Cc1cc(NCc2ccc(OCc3ccc(F)c(F)c3)cc2)c2cc(Br)ccc2n1 [Compound 9p, N-(4-((3,4-difluorobenzyl)oxy)benzyl) 6-bromo-2-methylquinolin-4-amine] | 5.3 µM | 142 to 144 °C |  |  | 
12 | COc1ccc2nc(C)cc(NCc3ccc(OCc4ccc(F)c(F)c4)cc3)c2c1 [Compound 9y, N-(4-((3,4-difluorobenzyl)oxy)benzyl)-6-methoxy-2-methylquinolin-4-amine] | 5.9 µM | 104 to 106 °C |  |  | 
13 | Cc1cc(NCc2ccc(OCc3ccc(C(C)C)cc3)cc2)c2cc(Br)ccc2n1 [Compound 9q, N-(4-((4-isopropylbenzyl)oxy)benzyl) 6-bromo-2-methylquinolin-4-amine] | 5.3 µM | 135 to 137 °C |  |  | 
14 | CCc1cc(NCc2ccc(OCc3ccc(Cl)cc3)cc2)c2cc(Br)ccc2n1 [Compound 9t, N-(4-((4-chlorobenzyl)oxy)benzyl)-6-bromo-2-ethylquinolin-4-amine] | 5.2 µM | 122 to 124 °C | 1.9 fold |  | 
15 | COc1ccc2nc(C)cc(NCc3ccc(OCc4ccc(C(C)C)cc4)cc3)c2c1 [Compound 9w, N-(4-((4-isopropylbenzyl)oxy)benzyl)-6-methoxy-2-methylquinolin-4-amine] | 23.4 µM | 133 to 135 °C |  |  | 
16 | COc1cc(COc2ccc(CNc3cc(C)nc4ccccc34)cc2)cc(OC)c1 [Compound 9f, N-(4-((3,5-dimethoxybenzyl)oxy)benzyl)-2-methylquinolin-4-amine] | 12.1 µM | 134 to 136 °C |  |  | 
17 | Cc1cc(NCc2ccc(OCc3ccc(F)c(F)c3)cc2)c2cc(Cl)ccc2n1 [Compound 9j, N-(4-((3,4-difluorobenzyl)oxy)benzyl)-6-chloro-2-methylquinolin-4-amine] | 5.9 µM | 137 to 139 °C |  |  | 
18 | NNC(=O)c1ccncc1 [INH, isoniazid, reference compound] | 2.3 µM |  |  |  | 
19 | Cc1cc(NCc2ccc(OCc3ccc(F)cc3)cc2)c2cc(Cl)ccc2n1 [Compound 9i, N-(4-((4-fluorobenzyl)oxy)benzyl) 6-chloro-2-methylquinolin-4-amine] | 6.1 µM | 170 to 172 °C |  |  | 
20 | COc1cc(COc2ccc(CNc3cc(C)nc4ccc(OC)cc34)cc2)cc(OC)c1 [Compound 9z, N-(4-((3,5-dimethoxybenzyl)oxy)benzyl)-6-methoxy-2-methylquinolin-4-amine] | 11.2 µM | 164 to 166 °C |  |  | 
21 | Cc1cc(NCc2ccc(OCc3ccc(F)c(F)c3)cc2)c2ccccc2n1 [Compound 9d, N-(4-((3,4-difluorobenzyl)oxy)benzyl)-2-methylquinolin-4-amine] | 25.6 µM | 199 to 201 °C |  |  | 
22 | COc1cc(COc2ccc(CNc3cc(C)nc4ccc(Cl)cc34)cc2)cc(OC)c1 [Compound 9l, N-(4-((3,5-dimethoxybenzyl)oxy)benzyl)-6-chloro-2-methylquinolin-4-amine] | 5.7 µM | 147 to 149 °C |  |  | 
23 | Cc1cc(NCc2ccc(OCc3ccccc3)cc2)c2cc(Br)ccc2n1 [Compound 9m, N-(4-(benzyloxy)benzyl)-6-bromo-2-methylquinolin-4-amine] | 5.8 µM | 164 to 166 °C |  | more than 2 fold | 
24 | Cc1cc(NCc2ccc(OCc3ccc(C(C)C)cc3)cc2)c2ccccc2n1 [Compound 9e, N-(4-((4-isopropylbenzyl)oxy)benzyl)-2-methylquinolin-4-amine] | 27 µM | 95 to 97 °C |  |  | 
25 | Cc1cc(NCc2ccc(OCc3ccc(Cl)cc3)cc2)c2ccccc2n1 [Compound 9b, N-(4-((4-chlorobenzyl)oxy)benzyl)-2-methylquinolin-4-amine] | > 12.9 µM | 111 to 113 °C |  |  | inactive
26 | Cc1cc(NCc2ccc(OCc3ccccc3)cc2)c2ccccc2n1 [Compound 9a, N-(4-(benzyloxy)benzyl)-2-methylquinolin-4-amine] | > 7 µM | 134 to 136 °C |  |  | inactive
